Test results taken from patent US11014953B2, “Trigger-activatable metabolic sugar precursors for cancer-selective labeling and targeting” (priority 2015, dated 2021).

Legend:
[1] = test system: LS174T colon cancer cells; assay: Metabolic labeling of LS174T cells with azido-sugars, azides detected by DBCO-Cy5 (confocal imaging, flow cytometry); format: cell-based; settings: LS174T cells
Description: General procedures for confocal imaging of azido-sugar labeled cells. Cells were seeded onto coverslips in a 6-well plate at a cell density of 40 k/well. Ac4ManAz or Ac3ManAz derivatives were added with a final concentration of 50 μM and the cells were incubated at 37° C. for 72 h. The medium was removed and washed with PBS for three times. DBCO-Cy5 (50 μM) in Opti-MEM was then added and the cells were incubated for another 1 h. Then the medium was removed and the cells were washed with PBS for three times. 4% paraformaldehyde (PFA) solution was added to fix the cells for 10 min, followed by staining of cell nucleus with DAPI (2 μg/mL) for 10 min. The coverslips were mounted on microscope slides with the addition of ProLong Gold antifade reagent, and the prepared sample was stored in dark for imaging.
General procedures for flow cytometry analysis of azido-sugar labeled cells. Cells were seeded onto coverslips in a 6-well plate at a cell density of 40 k/well. Ac4ManAz or Ac3ManAz derivatives were added and incubated with cells for 72 h. After removal of medium and multiple washing steps, DBCO-Cy5 in opti-MEM was added and incubated with cells at 37° C. for 1 h. The opti-MEM was then removed and cells were washed with PBS for three times. Cells were lifted by incubating with trypsin solution (1 mL) at 37° C. for 3 min and transferred to test tubes with addition of 4% PFA solution (0.5 mL). Twenty thousand cells per sample were analyzed by flow cytometry and data analysis was performed on the FCS Express software.
Ac3ManAzNB mediated controlled cell labeling. LS174T cells were seeded onto coverslips in a 6-well plate at a cell density of 40 k/well. Ac3ManAzNB with a final concentration of 50 μM was added. […] Cells without UV irradiation were continuously incubated for 72 h. Cell samples for confocal imaging and flow cytometry were then prepared following the above-mentioned procedures.
Ac3ManAzHQ mediated controlled cell labeling. LS174T colon cancer cells or Caco-2 colon cancer cells or human fibroblast IMR90 cells were seeded onto coverslips in a 6-well plate at a cell density of 40 k/well and allowed to attach for overnight. Ac3ManAzHQ with a final concentration of 50 μM was added, followed by the addition of curcumin with a final concentration of 50 μM. Cells treated with PBS or Ac3ManAzHQ only were used as control. After 72-h incubation, cell samples for confocal imaging and flow cytometry were prepared following the above-mentioned procedures.
E-S mediated controlled cell labeling in vitro. LS174T colon cancer cells or human fibroblast IMR90 cells were seeded onto coverslips in a 6-well plate at a cell density of 40 k/well. E-S with a final concentration of 50 μM was added, followed by the addition of either TSA (1 μM) or Z-FY-CHO (50 μM). Cells treated with PBS or E-S only were used as the control. After 72-h incubation, the medium was removed and cell samples for confocal imaging and GE-Analyzer measurements were prepared similarly to above-mentioned procedures.

LS174T cells = assay: Western blot analysis of LS174T cells treated with azido-sugars; format: cell-based; settings: 72 h
Description: Western blot analysis of cells treated with azido-sugars. LS174T cells were seeded onto cell culture flasks (25 cm^2 growth area) at a density of 1×10^6 cells per plate in 5 mL of media. Different azido-sugars were added and incubated with cells for 72 h. The cells were washed with PBS twice and harvested from the flasks using a cell scraper. Cells were pelleted by centrifugation at 1000 rpm for 5 min and re-suspended in 200 μL of lysis buffer (1% SDS, 100 mM Tris.HCl, pH 7.4) containing 1 tablet protease inhibitor (EDTA-free). The lysate was incubated at 4° C. for 30 min, followed by centrifugation at 3000 rcf for 10 min to remove insoluble debris. The total concentration of soluble protein in each sample was determined by bicinchoninic acid (BCA) assay and adjusted to the same concentration. Then 20 μL of the lysate was taken out and incubated with phosphine-PEG3-biotin (2 μL, 5 mM in PBS) at 37° C. for 6 h. Loading buffer was added to each sample and samples were loaded onto 10% SDS-PAGE gel after heating at 95° C. After running the gel for 100 min, proteins were transferred to Hybond P membrane, followed by blocking of the membrane with 5% bovine serum albumin (BSA) in TBST (50 mM Tris.HCl, 150 mM NaCl, 0.1% Tween 20, pH 7.4) for 2 h. The membrane was then incubated with streptavidin-HRP (diluted 1:2000 in TBST) overnight at 4° C., rinsed with TBST for three times and developed by ECL Western Blotting Substrate. For fluorescent visualization of protein bands, 20 μL of cell lysate was directly incubated with DBCO-Cy3 solution for 3 h. After the gel running and membrane transfer, protein bands were visualized using an Image Quant LAS 4010 system with a Cy3/Cy3 (excitation/emission) channel.

[2] = test system: subcutaneous LS174T tumors; assay: In vivo tumor labeling after intratumoral injection of azido-sugars, DBCO-Cy5 i.v.; set-up: species or system athymic nude mice
Description: In vivo tumor labeling of Ac4ManAz, Ac3ManAzEt, and Ac3ManAzNB. LS174T tumor models were established on 6 week-old athymic nude mice by subcutaneous injection of LS174T colon cancer cells (1.5 million) in HBSS/matrigel (1/1, v/v) to both flanks. When the tumors grew to 5-6 mm, Ac4ManAz or Ac3ManAzEt or Ac3ManAzNB (25 mM, 20 μL) was injected into the left tumors once daily for three days while the same amount of PBS was injected to the right tumors as control (N=3 per group). At 24 h post the last injection, DBCO-Cy5 (5 mg/kg) was i.v. injected and its biodistribution was monitored via in vivo fluorescence imaging. Prior to imaging, nude mice were placed on the sample stage equipped with anesthesia input and output ports, and imaged by the Maestro In-Vivo Fluorescence Imaging System. The excitation filter of 575-605 nm was used. The tunable emission filter was automatically stepped in 10-nm increments from 630 to 850 nm with an exposure time of 50 ms for images taken at each wavelength. Collected images were analyzed by the Maestro software, which uses spectral unmixing algorithms to subtract autofluorescence from Cy5 signals. Tumors and major organs were harvested from mice at 24 h post injection of DBCO-Cy5. Ex vivo images were collected similarly using the Maestro system. Fluorescence intensity at selected ROIs was quantified using Maestro imaging software. All values were presented as means±standard deviation (n=3).
Western blot analysis of tissues. Tumors and organs harvested from azido-sugar treated mice were transferred into glass tubes containing 2 mL of lysis buffer (1% SDS, 100 mM Tris HCl, pH 7.4), homogenized, and incubated at 4° C. for 30 min. The lysates were then centrifuged at 3000 rcf for 10 min to remove the insoluble debris. Total soluble protein concentrations were determined by BCA assay and adjusted to 5 mg/mL for each group. The rest of procedures were the same as the above-mentioned western blot analysis of cells.
Confocal imaging of tumor tissue sections. After ex vivo imaging, tumors were directly frozen in O.C.T. compound and sectioned on a cryostat (Leica CM3050S) with a thickness of 6-8 μm. DAPI in PBS (2 μg/mL) was added onto the tissue-attaching microscope slides to stain cell nucleus. After 10 min, DAPI solution was removed and tissues were washed with PBS for three times. Coverslips were mounted on the microscope slides with the addition of ProLong Gold antifade reagent, and the prepared sample was stored in dark for confocal imaging.

LS174T tumors = assay: E-S mediated cancer-selective labeling in vivo, western blot analysis of tissues; set-up: species or system athymic nude mice; settings: i.v. once daily three days, 24 h p.i.; liver, spleen, heart, lung, kidney
Description: (1) Western blot analysis of tissues. LS174T tumor models were established in 6 week-old athymic nude mice by subcutaneous injection of LS174T colon cancer cells (1.5 million) in HBSS/matrigel (1/1, v/v). When the tumors grew to 5-6 mm, E-S (60 mg/kg) was i.v. injected once daily for three days. Mice i.v. administered with Ac4ManAz (40 mg/kg, 10% DMSO in PBS) or PBS were used as control. At 24 h post the last injection, tumors and major organs were harvested, transferred into lysis buffer (2 mL), and homogenized. The lysates were incubated at 4° C. for 30 min, and insoluble debris was removed by centrifugation at 3000 rpm for 10 min. Total soluble protein concentrations were determined by BCA assay and adjusted to 5 mg/mL for each group. The rest of procedures were the same as the abovementioned general procedures for western blot analysis. Azido-labeled protein bands in tumor tissues and healthy tissues of all three groups were visualized and compared to understand the cancer-selective labeling capability of E-S in vivo.

[3] = in vivo
Description: Liver, heart, kidneys, spleen, brain, sternum and spinal cord (cervical thoracic and lumbar) were fixed in formalin, paraffin-embedded, sectioned with a thickness of 4 μm, and stained with H&E. Tissues were analyzed by a board-certified pathologist to investigate treatment-mediated toxicity. These analyses were performed by a board certified pathologist.

| SMILES | Cy5 fluorescence on the cell surface (CLSM) ([1]; 50 μM azido-sugar three days (72 h), then DBCO-Cy5 1 h) | Cy5 fluorescence by flow cytometry ([1]; compared with cells treated with Ac3ManAzEt or PBS) | Western blot of azido-glycoproteins (biotinylated with phosphine-PEG3-biotin) (LS174T cells) | In vivo Cy5 fluorescence intensity of pretreated left tumors vs control right tumors ([2]; 24 h p.i. of i.v. DBCO-Cy5) | Ex vivo increase in Cy5 FI compared to the control tumors ([2]; ex vivo imaging of tumors) | Western blot of tumors (azido-modified glycoproteins) ([2]; intratumoral once daily for three days, tumors harvested 24 h p.i.) | Cy5 fluorescence of tumor sections (confocal imaging) ([2]; tumor sections after ex vivo imaging) | Azido-modified proteins in normal tissues (western blot) (LS174T tumors) | Toxicity in mouse tissues (bone marrow, spleen) [3] |
| --- | --- | --- | --- | --- | --- | --- | --- | --- | --- |
| CC(=O)OC[C@H]1OC(OC(C)=O)[C@@H](NC(=O)CN=[N+]=[N-])[C@@H](OC(C)=O)[C@@H]1OC(C)=O (stereo partly drawn) [Ac4ManAz, tetraacetyl N-azidoacetylmannosamine] | strong Cy5 fluorescence on the cell surface | significantly enhanced Cy5 fluorescence | a series of protein bands | much stronger Cy5 fluorescence intensity | over 4 fold | a series of azido-modified glycoproteins | strong Cy5 fluorescence | non-specific labeling in normal tissues | – |
| COc1cccc2c1C(=O)c1c(O)c3c(c(O)c1C2=O)C[C@@](O)(C(=O)CO)C[C@@H]3O[C@H]1C[C@H](N)[C@H](O)[C@H](C)O1 [Doxo, doxorubicin] | – | – | – | – | – | – | – | – | much greater toxicity |
